Experimental data as given in ChEMBL document CHEMBL4725277, “Synthetic and therapeutic perspectives of nitrogen containing heterocycles as anti-convulsants” (Bioorg Med Chem, 2020).

What was measured:
[1] = organism: Mus musculus; test: Anticonvulsant activity in mouse assessed as protection against 50 mA current-induced seizure after 0.5 hrs by maximal electroshock seizure test; assay type: functional
[2] = Neurotoxicity in ip and po injected mouse; assay type: toxicity, organism-based; details: in vivo
[3] = Protective index, ratio of TD50 for neurotoxicity in ip and po injected mouse to ED50 for anticonvulsant activity in mouse assessed as protection against 50 mA current-induced seizure; assay type: toxicity, organism-based; details: in vivo, read-out: PI
[4] = Neurotoxicity in albino rat at 100 mg/kg, ip after 30 mins (reference value: 2%); assay type: toxicity, organism-based; details: in vivo, 0.5 h
[5] = organism: Mus musculus; test: Anticonvulsant activity in albino mouse assessed as pentylenetetrazole-induced seizure measured after 30 mins; assay type: functional; details: 0.5 h
[6] = system: Mus musculus; test: Anticonvulsant activity in ip injected albino mouse assessed as protection against 50 mA current-induced seizure after 0.5 to 4 hrs interval by maximal electroshock seizure test; assay type: functional; details: time hrs 0.5-4
[7] = Neurotoxicity in ip injected albino mouse; assay type: toxicity, organism-based; details: in vivo
[8] = organism: Mus musculus; test: Anticonvulsant activity in albino mouse assessed as pentylenetetrazole-induced seizure; assay type: functional
[9] = organism: Mus musculus; test: Anticonvulsant activity in mouse assessed as protection against current-induced seizure by maximal electroshock seizure test; assay type: functional
[10] = Neurotoxicity in mouse by rotarod test; assay type: toxicity; details: in vivo
[11] = organism: Mus musculus; test: Anticonvulsant activity in KunMing mouse assessed as protection against 50 mA current-induced seizure after 30 mins interval by maximal electroshock seizure test; assay type: functional; details: 0.5 h
[12] = Neurotoxicity in KunMing mouse after 30 mins by rotarod test; assay type: toxicity; details: in vivo
[13] = organism: Mus musculus; test: Anticonvulsant activity in KunMing mouse assessed as protection against 50 mA current-induced seizure after 0.5 to 4 hrs by maximal electroshock seizure test; assay type: functional; details: time hrs 0.5-4
[14] = organism: Mus musculus; test: Anticonvulsant activity in KunMing mouse assessed as protection against current-induced seizure by maximal electroshock seizure test; assay type: functional
[15] = Lipophilicity, log P of the compound; assay type: physicochemical; details: octanol/water
[16] = organism: Mus musculus; test: Anticonvulsant activity in albino mouse assessed as protection against 50 mA current-induced seizure by maximal electroshock seizure test; assay type: functional
[17] = system: Mus musculus; test: Anticonvulsant activity in albino mouse assessed as protection against 50 mA current-induced seizure at 25 mg/kg by maximal electroshock seizure test relative to control; assay type: functional
[18] = Protective index, ratio of TD50 for neurotoxicity in mouse to ED50 for anticonvulsant activity in mouse assessed as protection against current-induced seizure; assay type: toxicity; details: in vivo, read-out: PI
[19] = Protective index, ratio of TD50 for neurotoxicity in mouse to ED50 for anticonvulsant activity in mouse assessed as protection against pentylenetetrazole-induced seizure; assay type: toxicity; details: in vivo, read-out: PI
[20] = Protective index, ratio of TD50 for neurotoxicity in KunMing mouse to ED50 for anticonvulsant activity in KunMing mouse assessed as protection against 50 mA current-induced seizure; assay type: toxicity; details: in vivo, read-out: PI
[21] = Protective index, ratio of TD50 for neurotoxicity in ip injected albino mouse to ED50 for anticonvulsant activity in ip injected albino mouse assessed as protection against 50 mA current-induced seizure; assay type: toxicity, organism-based; details: in vivo
[22] = Protective index, ratio of TD50 for neurotoxicity in ip injected albino mouse to ED50 for anticonvulsant activity in albino mouse assessed as pentylenetetrazole-induced seizure; assay type: toxicity, organism-based; details: in vivo
[23] = organism: Mus musculus; test: Anticonvulsant activity in albino mouse assessed as current-induced seizure relative to control; assay type: functional
[24] = organism: Mus musculus; test: Anticonvulsant activity in albino mouse assessed as current-induced seizure latency time; assay type: functional
[25] = system: Mus musculus; test: Anticonvulsant activity in albino mouse assessed as protection against 50 mA current-induced seizure at 50 mg/kg by maximal electroshock seizure test relative to control; assay type: functional
[26] = system: Mus musculus; test: Anticonvulsant activity in albino mouse assessed as protection against 50 mA current-induced seizure at 100 mg/kg by maximal electroshock seizure test relative to control; assay type: functional
[27] = system: Mus musculus; test: Anticonvulsant activity in albino mouse assessed as protection against 50 mA current-induced seizure at 200 mg/kg by maximal electroshock seizure test relative to control; assay type: functional
[28] = organism: Mus musculus; test: Anticonvulsant activity in albino mouse assessed as protection against 50 mA current-induced seizure; assay type: functional; details: read-out: PD50
[29] = system: Mus musculus; test: Anticonvulsant activity in ip injected albino mouse assessed as protection against 50 mA current-induced seizure by maximal electroshock seizure test; assay type: functional
[30] = Protective index, ratio of TD50 for neurotoxicity in mouse to ED50 for anticonvulsant activity in mouse assessed as protection against 50 mA current-induced seizure; assay type: toxicity; details: in vivo, read-out: PI
[31] = organism: Mus musculus; test: Anticonvulsant activity in KunMing mouse assessed as protection against pentylenetetrazole-induced seizure by maximal electroshock seizure test; assay type: functional
[32] = Neurotoxicity in KunMing mouse by rotarod test; assay type: toxicity; details: in vivo
[33] = system: Mus musculus; test: Anticonvulsant activity in albino mouse assessed as protection against 50 mA current-induced seizure at 10 mg/kg by maximal electroshock seizure test relative to control; assay type: functional
[34] = system: Mus musculus; test: Anticonvulsant activity in albino mouse assessed as protection against 50 mA current-induced seizure at 20 mg/kg by maximal electroshock seizure test relative to control; assay type: functional
[35] = system: Mus musculus; test: Anticonvulsant activity in albino mouse assessed as protection against 50 mA current-induced seizure at 30 mg/kg by maximal electroshock seizure test relative to control; assay type: functional

## O=c1c2ccccc2n2cnnc2n1-c1ccc(Cl)cc1
[1]
  ED50: 27.39
[2]
  TD50: > 700 mg/kg
[3]
  selectivity ratio: > 25.6

## CN(C)CCOc1ccc2c(c1)C(=O)C(=O)N2
[4]
  Activity: 7%

## NC(=O)N1c2ccccc2C=Cc2ccccc21 [CARBAMAZEPINE]
[5]
  ED50: > 100 mg/kg
[6]
  ED50: 8.8 mg/kg
[7]
  TD50: 65.5 mg/kg
[8]
  ED50: > 100 mg/kg
[9]
  ED50: 11.8 mg/kg
[10]
  TD50: 11.8 mg/kg
[11]
  ED50: 10.1 mg/kg
[12]
  TD50 at 0.5 h: 69.1 mg/kg
[13]
  ED50: 9.8 mg/kg
[14]
  ED50: 11.8 mg/kg

## COc1ccc(-c2nc(N/N=C/c3ccc(Br)cc3)[nH]c(=O)c2C#N)cc1
[15]
  logP: 2.45

## CN1C(=O)CN=C(c2ccccc2)c2cc(Cl)ccc21 [DIAZEPAM]
[5]
  ED50: 0.7 mg/kg
[4]
  Activity: 88%
[16]
  ED50: 0.8 mg/kg

## Clc1ccc(Nc2nnc(-c3ccncc3)o2)cc1
[17]
  Activity: 100%

## Cc1ccc(NC(=S)N2C(=S)N=C(c3ccccc3)CC2c2ccc(O)cc2)cc1 (stereo unspecified)
[8]
  ED50: 278 mg/kg
[9]
  ED50: 15.6 mg/kg
[10]
  TD50: 534 mg/kg
[18]
  selectivity ratio: 34.2
[19]
  selectivity ratio: 1.9

## O=C1NC(=O)C(c2ccccc2)(c2ccccc2)N1 [PHENYTOIN]
[5]
  ED50: > 100 mg/kg
[6]
  ED50: 8.8 mg/kg
[8]
  ED50: > 300 mg/kg

## Nc1nnc(-c2ccccc2OCc2ccccc2F)o1
[5]
  ED50: 9 mg/kg
[16]
  ED50: 16.2 mg/kg

## O=C1N=C([O-])NC1(c1ccccc1)c1ccccc1.[Na+] [PHENYTOIN SODIUM]
[17]
  Activity: 100%

## CCCCCCOc1ccc2c(c1)CCc1nnc(C(N)=O)n1-2
[11]
  ED50: 30.1 mg/kg
[12]
  TD50 at 0.5 h: 286 mg/kg
[20]
  selectivity ratio: 9.5

## CN(C)Nc1ccc(/C=N/Nc2nnc(-c3ccccc3)nc2Cc2ccc(Cl)cc2)cc1
[5]
  ED50: 83.9 mg/kg
[6]
  ED50: 46 mg/kg
[7]
  TD50: 360 mg/kg
[21]; read-out: Ratio
  selectivity ratio: 7.82
[22]; read-out: Ratio
  selectivity ratio: 4.29

## CC(=O)Oc1cc2ccccc2cc1-c1nnc(N(C(C)=O)c2cccc(F)c2)s1
[23]
  Activity: 70%
[24]
  Time: 4.41 min

## O=C(CNC(=O)c1ccncc1)Nn1c(COc2ccc(Cl)cc2Cl)nc2ccccc2c1=O
[25]
  Activity: 50%
[26]
  Activity: 70%
[27]
  Activity: 80%
[28]
  ED50: 103 mg/kg

## Clc1ccc(Oc2cccc3nncn23)cc1
[9]
  ED50: 13.2 mg/kg
[10]
  TD50: 63.4 mg/kg
[18]
  selectivity ratio: 4.8

## Clc1ccc(Nc2nnc(-c3ccncc3)s2)cc1
[17]
  Activity: 100%

## Nc1nc(-c2ccccc2)nnc1C(=O)N1CCCC1c1noc2cc(F)ccc12 (stereo unspecified)
[7]
  TD50: > 300 mg/kg
[21]; read-out: Ratio
  selectivity ratio: > 48.4
[29]
  ED50: 6.2 mg/kg

## Nc1nc(-c2ccccc2)nnc1C(=O)N1CCCC1c1noc2cc(Br)ccc12 (stereo unspecified)
[7]
  TD50: > 100 mg/kg
[21]; read-out: Ratio
  selectivity ratio: > 8.22
[29]
  ED50: 12.2 mg/kg

## O=C1CN=C2c3ccccc3N=C(COc3ccc(Cl)cc3Cl)N2N1
[25]
  Activity: 60%
[26]
  Activity: 90%
[27]
  Activity: 90%
[28]
  ED50: 87.5 mg/kg

## CC(=O)Oc1cc2ccccc2cc1-c1nnc(N(CCc2ccccc2)C(C)=O)s1
[23]
  Activity: 90%
[24]
  Time: 5.92 min

## CN(C)Nc1ccc(/C=N/Nc2nnc(-c3ccccc3)nc2Cc2cccc(Cl)c2)cc1
[5]
  ED50: 92 mg/kg
[6]
  ED50: 54.3 mg/kg
[7]
  TD50: 435 mg/kg
[21]; read-out: Ratio
  selectivity ratio: 8.01
[22]; read-out: Ratio
  selectivity ratio: 4.73

## CN(C)CCOc1ccc2c(c1)/C(=N/NC(N)=O)C(=O)N2
[4]
  Activity: 7%

## S=C1N=C(c2ccccc2)CC(c2ccccc2)N1c1ccc(Cl)cc1 (stereo unspecified)
[5]
  ED50: 312 mg/kg
[6]
  ED50: 19.4 mg/kg
[7]
  TD50: 420 mg/kg
[21]; read-out: PI
  selectivity ratio: 21.6
[22]; read-out: PI
  selectivity ratio: 1.3

## O=c1[nH]nc2n1-c1ccc(OCc3ccc(F)cc3)cc1SCC2
[30]
  selectivity ratio: 12.6
[10]
  TD50: 331 mg/kg
[13]
  ED50: 26.3 mg/kg

## CCCC(CCC)C(=O)[O-].[Na+] [VALPROATE SODIUM]
[6]
  ED50: 272 mg/kg
[7]
  TD50: 42.6 mg/kg

## CCC1(C)CC(=O)NC1=O (stereo unspecified) [ETHOSUXIMIDE]
[21]; read-out: Ratio
  selectivity ratio: < 0.44
[22]; read-out: Ratio
  selectivity ratio: 3.39
[29]
  ED50: > 1000 mg/kg
[8]
  ED50: 130 mg/kg
[31]
  ED50: 106 mg/kg
[32]
  TD50: 343 mg/kg

## Nc1nnc(C(=O)N2CCCC2c2noc3cc(F)ccc23)c(N)n1 (stereo unspecified)
[7]
  TD50: > 200 mg/kg
[21]; read-out: Ratio
  selectivity ratio: > 28.2
[29]
  ED50: 7.1 mg/kg

## FC(F)(F)c1cccc(COc2nn3cnnc3c3ccccc23)c1
[30]
  selectivity ratio: 91.7
[1]; Mus musculus, read-out: ED50
  ED50: 9.3 mg/kg
[10]
  TD50: 853 mg/kg

## CN(C)c1ccc(C2CC(c3ccccc3)=NC(=S)N2C(=S)Nc2ccccc2)cc1 (stereo unspecified)
[8]
  ED50: 332 mg/kg
[9]
  ED50: 32.2 mg/kg
[10]
  TD50: 580 mg/kg
[18]
  selectivity ratio: 18
[19]
  selectivity ratio: 1.7

## CCCC(CCC)C(=O)O [VALPROIC ACID]
[24]
  Time: 7.2 min

## Nc1nc(-c2ccccc2)nnc1C(=O)N1CCCC1c1noc2cc(Cl)ccc12 (stereo unspecified)
[7]
  TD50: 103 mg/kg
[21]; read-out: Ratio
  selectivity ratio: > 18
[29]
  ED50: 5.7 mg/kg

## COc1ccc(N2C(=S)N=C(c3ccccc3)CC2c2ccccc2)cc1 (stereo unspecified)
[5]
  ED50: 378 mg/kg
[6]
  ED50: 16.8 mg/kg
[7]
  TD50: 534 mg/kg
[21]; read-out: PI
  selectivity ratio: 31.8
[22]; read-out: PI
  selectivity ratio: 1.4

## CCCCOc1ccc2c(c1)sc1n[nH]c(=O)n12
[9]
  ED50: 13.6 mg/kg
[10]
  TD50: > 700 mg/kg
[18]
  selectivity ratio: > 51

## CCC1(c2ccccc2)C(=O)NC(=O)NC1=O [PHENOBARBITAL]
[33]
  Activity: 40%
[34]
  Activity: 60%
[35]
  Activity: 100%
[28]
  ED50: 14.4 mg/kg
[9]
  ED50: 21.8 mg/kg
[13]
  ED50: 21.8 mg/kg

## Nc1ccc(Cl)cc1-c1n[nH]c(=O)n(-c2ccc(O)cc2)c1=O
[7]
  TD50: 682 mg/kg
[21]; read-out: Ratio
  selectivity ratio: 13.6
[22]; read-out: Ratio
  selectivity ratio: 7.15
[29]
  ED50: 51.1 mg/kg
[8]
  ED50: 95.3 mg/kg

## COc1ccc(-c2nc(N/N=C/c3ccc(O)cc3)[nH]c(=O)c2C#N)cc1
[15]
  logP: 1.27

## O=c1c2ccccc2n2cnnc2n1-c1ccc(Br)cc1
[1]
  ED50: 26.89
[2]
  TD50: > 700 mg/kg
[3]
  selectivity ratio: > 26

## COc1ccc(-c2nc(N/N=C/c3cccc(F)c3)[nH]c(=O)c2C#N)cc1
[15]
  logP: 2.13
